Data taken from article PMC7525662, “Preclinical dosimetry models and the prediction of clinical doses of novel positron emission tomography radiotracers” (Scientific Reports, 2020).
Marks after values point to notes of the source that are not given here.

How the values were obtained:
Design in all cases: species or system Sprague–Dawley rats
Details in all cases: rat, in vivo
[1] = Residence times normalised to human organ masses, FBP reconstruction
Method: PET studies were reconstructed using filtered-back projection (FBP) and Mediso’s iterative Tera-Tomo 3D reconstruction algorithm with the following settings: 4 iterations, 6 subsets, full detector model, normal regularization, spike filter on, voxel size 0.4 mm and 400‒600 keV energy window. PET data were corrected for randoms, scatter and attenuation. Time-activity curves for each source organ, whole-body and remainder of the body were plotted. […] Residence times (τ) were determined for each radiotracer in source organs, whole-body and remaining (any activity assigned to the whole-body but not assigned to a source organ). Each preclinical source organ’s τ was determined by calculating the area under its respective time-activity curve (activity normalised to the percentage maximum injected dose as a function of time) using the trapezoid method. […] From each individual animal, eight dosimetry models were constructed from all possible combinations of image reconstruction method (FBP or iterative), τ (non-normalised or normalised to human organ masses), and sex of phantom (male or female). Supplementary table 1. Scaling (normalisation) factors applied to residence times of PET radiotracers in male Sprague-Dawley rats to predict human adult residence times. […] Stabin et al. 2006 ^4); WB: Whole Body.

[2] = OLINDA/EXM predicted clinical doses: adult male phantom, normalised τ, iterative
Method: (§1) PET studies were reconstructed using filtered-back projection (FBP) and Mediso’s iterative Tera-Tomo 3D reconstruction algorithm with the following settings: 4 iterations, 6 subsets, full detector model, normal regularization, spike filter on, voxel size 0.4 mm and 400‒600 keV energy window. PET data were corrected for randoms, scatter and attenuation. Time-activity curves for each source organ, whole-body and remainder of the body were plotted. […] Residence times (τ) were determined for each radiotracer in source organs, whole-body and remaining (any activity assigned to the whole-body but not assigned to a source organ). Each preclinical source organ’s τ was determined by calculating the area under its respective time-activity curve (activity normalised to the percentage maximum injected dose as a function of time) using the trapezoid method. […] From each individual animal, eight dosimetry models were constructed from all possible combinations of image reconstruction method (FBP or iterative), τ (non-normalised or normalised to human organ masses), and sex of phantom (male or female). Supplementary table 11. Predicted clinical absorbed organ doses and whole-body effective doses of PET radiotracers using normalised adult male source organ residence times from iterative reconstructions.

[3] = OLINDA/EXM predicted clinical doses: adult male phantom, normalised τ, FBP
Method: as §1, with “female).” for “female). Supplementary table 11. Predicted clinical absorbed organ doses and whole-body effective doses of PET radiotracers using normalised adult male source organ residence times from iterative reconstructions.”

[4] = OLINDA/EXM predicted clinical doses: adult male phantom, non-normalised τ, iterative
Method: as §1, with “female).” for “female). Supplementary table 11. Predicted clinical absorbed organ doses and whole-body effective doses of PET radiotracers using normalised adult male source organ residence times from iterative reconstructions.”

NOTA-RGDfK [existing Al^18F-labelled NOTA-RGDfK peptide PET radiotracer; precursor NOTA-RGDfK (1)]
Normalised Residence Time (h), Average: Remaining [1]: 1.98 h | Effective Dose [2]: 2.17E-02 mSv/MBq | Estimated Absorbed Dose of Organ, Adrenals [2]: 6.76E-03 mGy/MBq | Estimated Absorbed Dose of Organ, Brain [2]: 2.27E-03 mGy/MBq | Estimated Absorbed Dose of Organ, Breasts [2]: 4.34E-03 mGy/MBq | Estimated Absorbed Dose of Organ, Gallbladder Wall [2]: 7.11E-03 mGy/MBq | Estimated Absorbed Dose of Organ, Heart Wall [2]: 1.28E-02 mGy/MBq | Estimated Absorbed Dose of Organ, Kidneys [2]: 2.74E-02 ‡ mGy/MBq | Estimated Absorbed Dose of Organ, LLI Wall [2]: 5.51E-02 § mGy/MBq | Estimated Absorbed Dose of Organ, Liver [2]: 7.32E-03 mGy/MBq | Estimated Absorbed Dose of Organ, Lungs [2]: 6.59E-03 mGy/MBq | Estimated Absorbed Dose of Organ, Muscle [2]: 6.45E-03 mGy/MBq | Estimated Absorbed Dose of Organ, Osteogenic Cells [2]: 8.36E-03 mGy/MBq | Estimated Absorbed Dose of Organ, Pancreas [2]: 6.93E-03 mGy/MBq | Estimated Absorbed Dose of Organ, Red Marrow [2]: 6.11E-03 mGy/MBq | Estimated Absorbed Dose of Organ, Skin [2]: 4.44E-03 mGy/MBq | Estimated Absorbed Dose of Organ, Small Intestine [2]: 9.30E-03 mGy/MBq | Estimated Absorbed Dose of Organ, Spleen [2]: 6.39E-03 mGy/MBq | Estimated Absorbed Dose of Organ, Stomach Wall [2]: 6.44E-03 mGy/MBq | Estimated Absorbed Dose of Organ, Testes [2]: 8.41E-03 mGy/MBq | Estimated Absorbed Dose of Organ, Thymus [2]: 5.44E-03 mGy/MBq | Estimated Absorbed Dose of Organ, Thyroid [2]: 5.10E-03 mGy/MBq | Estimated Absorbed Dose of Organ, ULI Wall [2]: 8.07E-03 mGy/MBq | Estimated Absorbed Dose of Organ, Urinary Bladder Wall [2]: 1.75E-01 † mGy/MBq | Estimated Absorbed Dose, Total Body [2]: 6.69E-03 mGy/MBq | Effective Dose (mSv/MBq), Average ± SD [3]: 2.18E-02 mSv/MBq | Estimated Absorbed Dose of Organ, Average: Adrenals [3]: 1.10E-02 mGy/MBq | Estimated Absorbed Dose of Organ, Average: Brain [3]: 3.17E-03 mGy/MBq | Estimated Absorbed Dose of Organ, Average: Breasts [3]: 8.04E-03 mGy/MBq | Estimated Absorbed Dose of Organ, Average: Gallbladder Wall [3]: 1.15E-02 mGy/MBq | Estimated Absorbed Dose of Organ, Average: Heart Wall [3]: 1.15E-02 mGy/MBq | Estimated Absorbed Dose of Organ, Average: Kidneys [3]: 1.64E-02 § mGy/MBq | Estimated Absorbed Dose of Organ, Average: LLI Wall [3]: 5.79E-02 ‡ mGy/MBq | Estimated Absorbed Dose of Organ, Average: Liver [3]: 6.81E-03 mGy/MBq | Estimated Absorbed Dose of Organ, Average: Lungs [3]: 8.79E-03 mGy/MBq | Estimated Absorbed Dose of Organ, Average: Muscle [3]: 1.05E-02 mGy/MBq | Estimated Absorbed Dose of Organ, Average: Osteogenic Cells [3]: 1.53E-02 mGy/MBq | Estimated Absorbed Dose of Organ, Average: Pancreas [3]: 1.17E-02 mGy/MBq | Estimated Absorbed Dose of Organ, Average: Red Marrow [3]: 9.94E-03 mGy/MBq | Estimated Absorbed Dose of Organ, Average: Skin [3]: 7.88E-03 mGy/MBq | Estimated Absorbed Dose of Organ, Average: Small Intestine [3]: 1.40E-02 mGy/MBq | Estimated Absorbed Dose of Organ, Average: Spleen [3]: 1.09E-02 mGy/MBq | Estimated Absorbed Dose of Organ, Average: Stomach Wall [3]: 1.13E-02 mGy/MBq | Estimated Absorbed Dose of Organ, Average: Testes [3]: 1.18E-02 mGy/MBq | Estimated Absorbed Dose of Organ, Average: Thymus [3]: 9.99E-03 mGy/MBq | Estimated Absorbed Dose of Organ, Average: Thyroid [3]: 9.88E-03 mGy/MBq | Estimated Absorbed Dose of Organ, Average: Total Body [3]: 1.05E-02 mGy/MBq | Estimated Absorbed Dose of Organ, Average: ULI Wall [3]: 1.28E-02 mGy/MBq | Estimated Absorbed Dose of Organ, Average: Urinary Bladder Wall [3]: 1.16E-01 † mGy/MBq | Effective Dose (mSv/MBq), Average ± SD [4]: 6.30E-02 mSv/MBq | Estimated Absorbed Dose of Organ, Average ± SD: Adrenals [4]: 7.60E-03 mGy/MBq | Estimated Absorbed Dose of Organ, Average ± SD: Brain [4]: 1.47E-03 mGy/MBq | Estimated Absorbed Dose of Organ, Average ± SD: Breasts [4]: 4.25E-03 mGy/MBq | Estimated Absorbed Dose of Organ, Average ± SD: Gallbladder Wall [4]: 8.74E-03 mGy/MBq | Estimated Absorbed Dose of Organ, Average ± SD: Heart Wall [4]: 6.02E-03 mGy/MBq | Estimated Absorbed Dose of Organ, Average ± SD: Kidneys [4]: 4.41E-02 § mGy/MBq | Estimated Absorbed Dose of Organ, Average ± SD: LLI Wall [4]: 1.50E-01 ‡ mGy/MBq | Estimated Absorbed Dose of Organ, Average ± SD: Liver [4]: 8.14E-03 mGy/MBq | Estimated Absorbed Dose of Organ, Average ± SD: Lungs [4]: 3.96E-03 mGy/MBq | Estimated Absorbed Dose of Organ, Average ± SD: Muscle [4]: 1.06E-02 mGy/MBq | Estimated Absorbed Dose of Organ, Average ± SD: Osteogenic Cells [4]: 1.00E-02 mGy/MBq | Estimated Absorbed Dose of Organ, Average ± SD: Pancreas [4]: 7.83E-03 mGy/MBq | Estimated Absorbed Dose of Organ, Average ± SD: Red Marrow [4]: 9.28E-03 mGy/MBq | Estimated Absorbed Dose of Organ, Average ± SD: Skin [4]: 5.85E-03 mGy/MBq | Estimated Absorbed Dose of Organ, Average ± SD: Small Intestine [4]: 1.73E-02 mGy/MBq | Estimated Absorbed Dose of Organ, Average ± SD: Spleen [4]: 7.40E-03 mGy/MBq | Estimated Absorbed Dose of Organ, Average ± SD: Stomach Wall [4]: 7.65E-03 mGy/MBq | Estimated Absorbed Dose of Organ, Average ± SD: Testes [4]: 1.89E-02 mGy/MBq | Estimated Absorbed Dose of Organ, Average ± SD: Thymus [4]: 5.18E-03 mGy/MBq | Estimated Absorbed Dose of Organ, Average ± SD: Thyroid [4]: 5.01E-03 mGy/MBq | Estimated Absorbed Dose of Organ, Average ± SD: Total Body [4]: 1.06E-02 mGy/MBq | Estimated Absorbed Dose of Organ, Average ± SD: ULI Wall [4]: 1.35E-02 mGy/MBq | Estimated Absorbed Dose of Organ, Average ± SD: Urinary Bladder Wall [4]: 6.89E-01 † mGy/MBq
